Tested on: full skin models
Assay type: cell-based, human
Settings: for cell viability: human
Procedure: Additionally, the influence on the cell viability and the release of lactate dehydrogenase (LDH) was examined over the incubation time. Disruptions of the cell membranes can be measured by the release of the cytosolic enzyme LDH and be evaluated as a marker for cellular necrosis. As the biocompatibility of the material is determined by further cellular and molecular factors, the analysis of the cellular interleukin release allows the conclusion on e.g. pro-inflammatory effects of the substances, which would not be possible to be detected by sole cytotoxicity. Such interleukins are interleukins 1α, 6 or 8, which are involved in coordinating the cellular proliferation, cell migration and possible inflammatory processes. Such a method is described in, for example, Wiegand C, Hipler UC. Evaluation of biocompatibility and cytotoxicity using keratinocyte and fibroblast cultures. Skin Pharmacol Physiol 2009; 22:74-82; Wiegand C, Winter D, Hipler UC. Molecular-weight-dependent toxic effects of chitosans on the human keratinocyte cell line HaCaT. Skin Pharmacol Physiol. 2010;23(3):164-70.
The spore suspensions and the solutions of sertaconazol, ciclopiroxolamin and terbinafin were prepared as in Example 1, wherein the respective test concentrations were obtained by diluting these solutions in ultrapure water (WFI; Fresenius Kabi) instead of SGB (Merck). Full skin models were produced as previously described [Reddersen K, Wiegand C, Elsner P, Hipler UC. Three-dimensional human skin model infected with Staphylococcus aureus as a tool for evaluation of bioactivity and biocompatibility of antiseptics. Int J Antimicrob Agents. 2019; 54(3):283-291; Wiegand C, Fink S, Beier O, Horn K, Pfuch A, Schimanski A, Grünler B, Hipler UC, Elsner P. Dose- and Time-Dependent Cellular Effects of Cold Atmospheric Pressure Plasma Evaluated in 3D Skin Models. Skin Pharmacol Physiol. 2016;29(5):257-265].Particularly, normal human dermal fibroblasts (NHDF; Lot 1060702.1, Promocell) and normal human epidermal keratinocytes (NHEK; Lot 9100102, Promocell) were used. Fibroblasts were cultivated in Dulbecco's modified eagle medium (DMEM; Lot MC09049P, Amimed), with 2% foetal calf serum (Lot P160509; PAN), 5 ng/mL hFGF (Lot 0329586; novoprotein) and 5 µg/ml Insulin (Lot H07443P, AMIMED) at 37°C and a 5% CO2 atmosphere. Keratinocytes were cultivated in keratinocyte medium (KBM, Lot 446M063, Promocell) at 37°C and a 5% CO2 atmosphere. The cultivation was performed over 7 days in 75 cm^2 cell culture flasks (Greiner Bio-One). The cells were subsequently detached with Trypsin-EDTA (Lot 2091326; Gibco) and dissolved in the respective medium. For producing the dermis equivalent, fibroblasts were cultivated in 12-well inserts (Greiner bio-one) with DMEM (Lot MC09049P, Amimed) + 10% foetal calf serum (Lot P160509, PAN) + 1% Gentamycin (Lot 2027100, Gibco) + 150 µg/ml ascorbic acid (Lot BCBS1081V, Sigma) for 3 weeks at […] and 5 % CO2. The medium was changed all 2-3 days. Before seeding the keratinocytes for producing the […], the medium surrounding the insert was completely removed and the dermis upper layer was coated with fibronectin (50 µg/mL; Lot 435P078, Promocell). After 30 min of incubation of the dermis equivalent with fibronectin, the seeding of the keratinocytes was performed with 2 × 10^5 cells / insert in KBM (Lot 446M063, Promocell) + 5% FKS (Lot P160509, PAN) + 1% Gentamycin (Lot 2027100, Gibco). Subsequently, the skin models were incubated for 45 min in the incubator before the models were flooded with KBM + 5% FKS + 1% Gentamycin. The skin models were cultivated for 7 days by submersion in the medium with decreasing foetal calf serum concentration (5 %, 2 %, 0 %). The medium was changed all 2-3 days. After the cultivation by submersion, the skin models were further cultivated for 12 days at the air-medium interface (airlift cultivation). […]

| secretion of LDH | Structure (SMILES) | effect on the cell viability of the full skin models | cell viability [%] |
| --- | --- | --- | --- |
| no significant secretion | Cc1cc(C2CCCCC2)n(O)c(=O)c1 [Ciclopiroxolamin, ciclopiroxolamin] | did not have a negative effect | ≥ 70 |
| no significant secretion | Clc1ccc(C(Cn2ccnc2)OCc2csc3c(Cl)cccc23)c(Cl)c1 (stereo not drawn) [Sertaconazol, sertaconazol] | did not have a negative effect | ≥ 70 |
| no significant secretion | CN(C/C=C/C#CC(C)(C)C)Cc1cccc2ccccc12 [Terbinafin, terbinafin] | did not have a negative effect | ≥ 70 |

— patent EP4129284B1, “SERTACONAZOL FOR PROVIDING A SPORISTATIC AND/OR SPORICIDAL EFFECT” (Dr. Pfleger Arzneimittel GmbH, priority 2021, dated 2023)
